Source: ChEMBL document CHEMBL1145137, “Design, synthesis, and crystal structure of selective 2-pyridone tissue factor VIIa inhibitors” (J Med Chem, 2003)

Tests used:
Coagulation factor VII = molecular target: T1, Coagulation factor VII (Homo sapiens, UniProt P08709); assay: Inhibitory concentration against recombinant human coagulation factor VII
T1 sequence (P08709 whole entry): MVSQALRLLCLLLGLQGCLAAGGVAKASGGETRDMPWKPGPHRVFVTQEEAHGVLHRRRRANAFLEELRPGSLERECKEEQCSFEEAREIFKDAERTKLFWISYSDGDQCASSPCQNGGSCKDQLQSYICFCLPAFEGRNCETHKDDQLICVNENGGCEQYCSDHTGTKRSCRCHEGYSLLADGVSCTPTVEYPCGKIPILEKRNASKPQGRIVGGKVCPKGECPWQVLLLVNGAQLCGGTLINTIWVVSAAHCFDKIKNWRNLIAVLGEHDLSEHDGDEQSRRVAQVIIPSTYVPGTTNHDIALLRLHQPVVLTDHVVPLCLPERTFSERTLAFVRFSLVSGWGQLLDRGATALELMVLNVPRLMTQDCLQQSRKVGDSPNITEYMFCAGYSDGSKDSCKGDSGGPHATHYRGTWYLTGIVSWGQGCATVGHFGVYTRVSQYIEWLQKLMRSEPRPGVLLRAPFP

Coagulation factor X = Coagulation factor X (Homo sapiens, UniProt P00742); assay: Inhibitory concentration against human Coagulation factor X
Sequence of Coagulation factor X (P00742 41-179 limits assumed): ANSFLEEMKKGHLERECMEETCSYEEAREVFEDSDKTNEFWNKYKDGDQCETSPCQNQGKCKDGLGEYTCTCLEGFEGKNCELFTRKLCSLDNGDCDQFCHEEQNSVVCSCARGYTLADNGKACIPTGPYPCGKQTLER
Sequence of Coagulation factor X (P00742 235-488 limits assumed): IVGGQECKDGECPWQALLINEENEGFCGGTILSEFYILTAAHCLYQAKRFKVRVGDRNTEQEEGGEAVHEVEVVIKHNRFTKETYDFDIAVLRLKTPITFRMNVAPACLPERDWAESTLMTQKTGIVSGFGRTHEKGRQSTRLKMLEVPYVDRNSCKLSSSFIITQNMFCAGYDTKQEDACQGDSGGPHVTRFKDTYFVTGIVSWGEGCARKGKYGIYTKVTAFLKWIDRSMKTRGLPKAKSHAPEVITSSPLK

Prothrombin = Prothrombin (Homo sapiens, UniProt P00734); assay: Inhibitory concentration against human thrombin

Row | IC50 (Coagulation factor VII) | IC50 (Coagulation factor X) | IC50 (Prothrombin) | SMILES
1 | 52 nM | – | – | CC(C)Nc1ccc(-c2cc(N)cc(N)c2)n(CC(=O)NCc2ccc(C(=N)N)cc2)c1=O
2 | 118 nM | > 30000 nM | > 30000 nM | CC(C)Nc1ccc(-c2cc(N)cc(C(=O)O)c2)n(CC(=O)NCc2ccc(C(=N)N)cc2)c1=O
